In ChEMBL document CHEMBL5126508, “Therapeutic potential of quinazoline derivatives for Alzheimer's disease: A comprehensive review” (Eur J Med Chem, 2022):

How the values were obtained:
Cholinesterase [1] = target: T1, Cholinesterase (Homo sapiens, UniProt P06276); test: Inhibition of BuChE (unknown origin)
Acetylcholinesterase [2] = target: T2, Acetylcholinesterase (Homo sapiens, UniProt P22303); test: Inhibition of AChE (unknown origin)
Acetylcholinesterase [3] = target: T3, Acetylcholinesterase (Electrophorus electricus, UniProt O42275); test: Inhibition of electric eel AChE
[4] = Ratio of IC50 for equine BuChE to IC50 for electric eel AChE
Cholinesterase [5] = target: T4, Cholinesterase (Equus caballus, UniProt P81908); test: Inhibition of equine serum BuChE
Acetylcholinesterase [6] = target: T2, Acetylcholinesterase; test: Inhibition of human AChE
Beta-secretase 1 [7] = target: T5, Beta-secretase 1 (Homo sapiens, UniProt P56817); test: Inhibition of recombinant human BACE1 in human SH-SY5Y cells using fluorogenic 7-methoxycoumarin-4-yl)acetyl-Ser-Glu-Val-Asn-Leu-Asp-Ala-Glu-Phe-ArgLys(2, 4-dinitrophenyl)-Arg-Arg-NH2 as substrate measured every 5 mins for 120 mins by WCA; format: cell-based
Beta-secretase 1 [8] = target: T5, Beta-secretase 1; test: Inhibition of recombinant human BACE1 using fluorogenic 7-methoxycoumarin-4-yl)acetyl-Ser-Glu-Val-Asn-Leu-Asp-Ala-Glu-Phe-ArgLys(2, 4-dinitrophenyl)-Arg-Arg-NH2 as substrate measured every 5 mins for 120 mins by CFA
SH-SY5Y = test: Cytotoxicity against human SH-SY5Y cells; format: functional, cell-based
[9] = Antioxidant activity assessed as radical scavenging incubated for 90 mins in dark DPPH assay; format: functional
[10] = target: T6, Amine oxidase [flavin-containing] B (Homo sapiens, UniProt P27338); test: Inhibition of MAO-B (unknown origin)
T6 sequence (P27338 whole entry): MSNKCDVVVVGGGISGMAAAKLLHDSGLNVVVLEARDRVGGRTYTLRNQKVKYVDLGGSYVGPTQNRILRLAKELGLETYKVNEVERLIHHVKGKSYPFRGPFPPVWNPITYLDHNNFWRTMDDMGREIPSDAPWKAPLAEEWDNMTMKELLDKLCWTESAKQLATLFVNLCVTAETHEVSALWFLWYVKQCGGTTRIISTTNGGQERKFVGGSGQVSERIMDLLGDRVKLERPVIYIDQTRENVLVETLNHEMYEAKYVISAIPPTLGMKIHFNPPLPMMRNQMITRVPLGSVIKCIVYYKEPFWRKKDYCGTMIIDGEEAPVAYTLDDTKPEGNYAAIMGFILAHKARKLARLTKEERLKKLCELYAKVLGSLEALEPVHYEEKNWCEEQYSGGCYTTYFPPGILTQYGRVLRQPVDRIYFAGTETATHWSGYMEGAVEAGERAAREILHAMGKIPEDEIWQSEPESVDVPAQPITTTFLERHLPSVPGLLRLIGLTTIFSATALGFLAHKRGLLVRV

[11] = target: T7, Amine oxidase [flavin-containing] A (Homo sapiens, UniProt P21397); test: Inhibition of MAO-A (unknown origin)
T7 sequence (P21397 whole entry): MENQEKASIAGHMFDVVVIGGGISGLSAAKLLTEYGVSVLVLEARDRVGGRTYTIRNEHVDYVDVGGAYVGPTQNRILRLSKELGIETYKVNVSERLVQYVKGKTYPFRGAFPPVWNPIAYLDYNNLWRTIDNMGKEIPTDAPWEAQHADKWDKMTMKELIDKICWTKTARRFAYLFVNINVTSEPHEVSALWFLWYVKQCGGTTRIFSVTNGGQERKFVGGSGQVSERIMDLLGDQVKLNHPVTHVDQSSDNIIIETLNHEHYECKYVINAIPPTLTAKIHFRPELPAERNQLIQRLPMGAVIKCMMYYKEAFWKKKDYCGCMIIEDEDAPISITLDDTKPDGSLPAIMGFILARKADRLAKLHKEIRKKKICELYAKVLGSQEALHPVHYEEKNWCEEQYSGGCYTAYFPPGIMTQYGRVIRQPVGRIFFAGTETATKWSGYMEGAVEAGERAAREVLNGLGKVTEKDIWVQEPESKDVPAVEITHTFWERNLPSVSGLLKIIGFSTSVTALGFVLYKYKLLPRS

Acetylcholinesterase [12] = target: T3, Acetylcholinesterase; test: Inhibition of electric eel AChE using acetylthiocholine incubated for 30 mins by measuring hydrolysis of substrate by Ellman's method
[13] = Inhibition of Kainate receptor (unknown origin); parameters: species or system Homo sapiens
[14] = Antioxidant activity assessed as radical scavenging at 100 ug/ml by DPPH assay relative to control; format: functional
Cholinesterase [15] = target: T4, Cholinesterase; test: Inhibition of equine serum BuChE incubated measured after 25 mins by spectrophotometric analysis; format: cell-free
[16] = Ratio of IC50 for electric eel AChE to ratio of IC50 for equine BuChE
Acetylcholinesterase [17] = target: T3, Acetylcholinesterase; test: Inhibition of electric eel AChE incubated for 25 mins by Ellman's method
Cholinesterase [18] = target: T1, Cholinesterase; test: Inhibition of BuChE (unknown origin) at 100 uM relative to control
[19] = target: T8, Glycogen synthase kinase-3 (Homo sapiens, UniProt P49840+P49841); test: Inhibition of GSK3alpha/beta (unknown origin); format: protein assay
[20] = target: Cyclin-dependent kinase 1 (Homo sapiens, UniProt P06493); test: Inhibition of CDK1 (unknown origin)
[21] = target: T9, Cyclin-dependent kinase 5 (Homo sapiens, UniProt Q00535); test: Inhibition of CDK5 (unknown origin)
Target sequence in this assay (Q00535 whole entry): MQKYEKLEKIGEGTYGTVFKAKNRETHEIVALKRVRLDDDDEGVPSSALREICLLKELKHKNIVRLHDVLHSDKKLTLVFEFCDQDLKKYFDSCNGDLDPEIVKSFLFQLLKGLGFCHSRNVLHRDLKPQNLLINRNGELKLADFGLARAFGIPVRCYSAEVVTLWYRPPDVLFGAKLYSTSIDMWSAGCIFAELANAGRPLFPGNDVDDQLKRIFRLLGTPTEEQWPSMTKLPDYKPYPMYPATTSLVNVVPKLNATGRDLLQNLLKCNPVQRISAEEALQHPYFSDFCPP

Acetylcholinesterase [22] = target: T2, Acetylcholinesterase; test: Inhibition of AChE (unknown origin) incubated for 20 mins by TLC analysis
[23] = target: Dual specificity tyrosine-phosphorylation-regulated kinase 1A (Homo sapiens, UniProt Q13627); test: Inhibition of DYRK1A (unknown origin)
[24] = target: T9, Cyclin-dependent kinase 5; test: Inhibition of CDK5 (unknown origin) at 1 uM relative to control
Target sequence in this assay (Q00535 whole entry, looked up): as the sequence (Q00535 whole entry) above

[25] = target: T10, Casein kinase I delta/epsilon (Homo sapiens, UniProt P48730+P49674); test: Inhibition of CK1delta/epsilon (unknown origin) at 1 uM relative to control; format: protein-complex assay
[26] = target: T8, Glycogen synthase kinase-3; test: Inhibition of GSK3alpha/beta (unknown origin) at 1 uM relative to control; format: protein assay
Acetylcholinesterase [27] = target: T3, Acetylcholinesterase; test: Inhibition of electric eel AChE incubated measured after 25 mins by spectrophotometric analysis
[28] = Inhibition of PDE7 (unknown origin); parameters: species or system Homo sapiens
[29] = target: T11, Amyloid-beta precursor protein (Homo sapiens, UniProt P05067); test: Inhibition of amyloid beta 1 to 42 aggregation in human SH-SY5Y cells; format: cell-based
[30] = target: T11, Amyloid-beta precursor protein; test: Inhibition of amyloid beta 1 to 40 aggregation in human SH-SY5Y cells; format: cell-based
Beta-secretase 1 [31] = target: T5, Beta-secretase 1; test: Inhibition of BACE1 (unknown origin) incubated in dark for 90 mins by FRET assay
[32] = target: T10, Casein kinase I delta/epsilon; test: Inhibition of CK1delta/epsilon (unknown origin); format: protein-complex assay

T1 sequence (P06276 whole entry): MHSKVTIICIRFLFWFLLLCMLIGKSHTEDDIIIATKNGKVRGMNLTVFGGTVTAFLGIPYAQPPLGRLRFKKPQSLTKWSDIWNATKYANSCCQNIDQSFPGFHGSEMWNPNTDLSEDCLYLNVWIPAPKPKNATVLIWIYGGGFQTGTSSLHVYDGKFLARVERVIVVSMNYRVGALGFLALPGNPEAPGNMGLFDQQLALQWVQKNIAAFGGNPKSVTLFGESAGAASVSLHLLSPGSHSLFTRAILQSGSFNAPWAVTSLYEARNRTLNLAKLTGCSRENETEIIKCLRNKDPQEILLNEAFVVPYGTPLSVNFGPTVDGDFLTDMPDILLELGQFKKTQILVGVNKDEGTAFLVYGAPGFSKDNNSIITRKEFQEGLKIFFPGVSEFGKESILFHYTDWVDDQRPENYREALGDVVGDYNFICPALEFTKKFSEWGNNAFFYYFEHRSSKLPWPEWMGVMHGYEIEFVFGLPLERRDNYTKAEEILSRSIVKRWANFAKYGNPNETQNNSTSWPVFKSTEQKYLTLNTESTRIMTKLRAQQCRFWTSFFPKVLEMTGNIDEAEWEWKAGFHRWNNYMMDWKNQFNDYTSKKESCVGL
T5 sequence (P56817 whole entry): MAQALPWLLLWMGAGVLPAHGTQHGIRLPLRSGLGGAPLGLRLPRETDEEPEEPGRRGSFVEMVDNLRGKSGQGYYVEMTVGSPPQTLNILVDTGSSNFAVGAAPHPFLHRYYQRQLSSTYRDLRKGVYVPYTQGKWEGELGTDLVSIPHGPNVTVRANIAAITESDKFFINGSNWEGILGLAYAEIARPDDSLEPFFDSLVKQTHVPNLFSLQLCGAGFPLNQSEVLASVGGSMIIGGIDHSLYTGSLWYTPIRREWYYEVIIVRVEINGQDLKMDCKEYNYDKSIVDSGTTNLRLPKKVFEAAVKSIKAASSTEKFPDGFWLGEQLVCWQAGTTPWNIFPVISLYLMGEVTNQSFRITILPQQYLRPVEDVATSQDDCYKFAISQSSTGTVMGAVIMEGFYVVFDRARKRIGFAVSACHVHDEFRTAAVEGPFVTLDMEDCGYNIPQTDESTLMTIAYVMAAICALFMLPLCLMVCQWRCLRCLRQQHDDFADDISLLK
T2 sequence (P22303 whole entry): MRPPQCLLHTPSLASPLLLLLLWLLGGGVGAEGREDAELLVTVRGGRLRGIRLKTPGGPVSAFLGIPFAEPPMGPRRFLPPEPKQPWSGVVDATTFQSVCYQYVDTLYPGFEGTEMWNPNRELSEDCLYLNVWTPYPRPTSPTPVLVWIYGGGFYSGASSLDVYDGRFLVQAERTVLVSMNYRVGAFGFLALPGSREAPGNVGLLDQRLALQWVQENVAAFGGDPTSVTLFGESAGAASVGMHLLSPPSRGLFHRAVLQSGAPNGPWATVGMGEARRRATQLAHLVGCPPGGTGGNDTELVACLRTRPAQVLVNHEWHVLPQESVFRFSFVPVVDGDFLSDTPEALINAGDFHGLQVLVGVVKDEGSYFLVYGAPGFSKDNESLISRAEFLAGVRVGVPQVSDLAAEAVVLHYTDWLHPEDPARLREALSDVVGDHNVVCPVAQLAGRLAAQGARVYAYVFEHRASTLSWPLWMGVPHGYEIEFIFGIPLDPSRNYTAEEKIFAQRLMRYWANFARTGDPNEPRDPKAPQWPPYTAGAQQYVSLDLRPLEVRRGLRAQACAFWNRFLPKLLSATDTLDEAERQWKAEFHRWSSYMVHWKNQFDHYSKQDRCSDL
T3 sequence (O42275 whole entry): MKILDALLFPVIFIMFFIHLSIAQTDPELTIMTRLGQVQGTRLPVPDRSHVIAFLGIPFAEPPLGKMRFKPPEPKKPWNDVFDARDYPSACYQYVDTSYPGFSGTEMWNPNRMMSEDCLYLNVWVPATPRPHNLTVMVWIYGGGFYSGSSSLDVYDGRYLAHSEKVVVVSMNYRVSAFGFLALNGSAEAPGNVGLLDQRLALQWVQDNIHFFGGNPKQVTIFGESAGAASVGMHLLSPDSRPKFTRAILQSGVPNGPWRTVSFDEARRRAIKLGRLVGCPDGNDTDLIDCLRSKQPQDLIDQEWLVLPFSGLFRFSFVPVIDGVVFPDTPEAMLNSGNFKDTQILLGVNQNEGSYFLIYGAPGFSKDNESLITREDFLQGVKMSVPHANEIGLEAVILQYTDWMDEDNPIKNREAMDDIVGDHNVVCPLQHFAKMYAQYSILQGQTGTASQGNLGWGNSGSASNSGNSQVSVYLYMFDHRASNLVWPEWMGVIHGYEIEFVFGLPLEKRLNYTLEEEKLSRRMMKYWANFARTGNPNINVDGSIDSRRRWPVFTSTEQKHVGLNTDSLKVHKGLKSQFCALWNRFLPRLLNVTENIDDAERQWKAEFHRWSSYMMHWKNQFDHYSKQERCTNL
T4 sequence (P81908 whole entry): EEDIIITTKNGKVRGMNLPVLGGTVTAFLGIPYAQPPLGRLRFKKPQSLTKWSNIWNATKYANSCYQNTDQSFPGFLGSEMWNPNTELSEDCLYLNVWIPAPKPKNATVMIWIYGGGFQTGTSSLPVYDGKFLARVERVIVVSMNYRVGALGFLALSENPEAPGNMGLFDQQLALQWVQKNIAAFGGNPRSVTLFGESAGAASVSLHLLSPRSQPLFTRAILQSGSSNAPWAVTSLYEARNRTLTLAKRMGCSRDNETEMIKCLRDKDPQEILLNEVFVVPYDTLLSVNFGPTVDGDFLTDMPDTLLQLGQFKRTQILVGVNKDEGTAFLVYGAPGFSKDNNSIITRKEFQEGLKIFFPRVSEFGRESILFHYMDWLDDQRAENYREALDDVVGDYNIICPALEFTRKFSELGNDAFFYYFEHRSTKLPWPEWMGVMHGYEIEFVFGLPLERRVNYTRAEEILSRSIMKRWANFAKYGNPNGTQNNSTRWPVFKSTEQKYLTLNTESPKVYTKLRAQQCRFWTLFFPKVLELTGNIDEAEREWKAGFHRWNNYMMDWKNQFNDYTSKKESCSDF
Chain of Cyclin-dependent kinase 1 (P06493 whole entry): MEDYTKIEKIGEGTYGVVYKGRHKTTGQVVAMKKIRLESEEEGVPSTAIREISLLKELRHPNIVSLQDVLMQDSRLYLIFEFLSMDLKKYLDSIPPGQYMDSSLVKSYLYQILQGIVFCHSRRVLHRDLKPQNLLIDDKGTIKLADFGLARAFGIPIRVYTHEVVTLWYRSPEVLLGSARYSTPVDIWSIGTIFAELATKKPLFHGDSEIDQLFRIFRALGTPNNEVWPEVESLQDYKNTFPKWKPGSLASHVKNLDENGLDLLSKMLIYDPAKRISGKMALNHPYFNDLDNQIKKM
T8 sequence (P49840 whole entry, looked up): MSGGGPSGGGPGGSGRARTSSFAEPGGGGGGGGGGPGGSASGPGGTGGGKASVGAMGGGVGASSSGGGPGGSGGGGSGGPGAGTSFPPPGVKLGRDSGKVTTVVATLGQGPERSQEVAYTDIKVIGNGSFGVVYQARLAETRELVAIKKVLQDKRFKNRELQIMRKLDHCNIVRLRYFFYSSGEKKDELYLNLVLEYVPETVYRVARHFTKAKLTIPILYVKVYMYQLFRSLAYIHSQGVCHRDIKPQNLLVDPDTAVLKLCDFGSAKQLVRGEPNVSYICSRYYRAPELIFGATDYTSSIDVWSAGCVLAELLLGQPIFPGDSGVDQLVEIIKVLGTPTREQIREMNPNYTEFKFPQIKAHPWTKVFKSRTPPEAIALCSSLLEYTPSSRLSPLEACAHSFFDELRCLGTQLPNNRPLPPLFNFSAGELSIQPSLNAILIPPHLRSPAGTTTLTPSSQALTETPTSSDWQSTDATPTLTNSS
T8 sequence (P49841 whole entry, looked up): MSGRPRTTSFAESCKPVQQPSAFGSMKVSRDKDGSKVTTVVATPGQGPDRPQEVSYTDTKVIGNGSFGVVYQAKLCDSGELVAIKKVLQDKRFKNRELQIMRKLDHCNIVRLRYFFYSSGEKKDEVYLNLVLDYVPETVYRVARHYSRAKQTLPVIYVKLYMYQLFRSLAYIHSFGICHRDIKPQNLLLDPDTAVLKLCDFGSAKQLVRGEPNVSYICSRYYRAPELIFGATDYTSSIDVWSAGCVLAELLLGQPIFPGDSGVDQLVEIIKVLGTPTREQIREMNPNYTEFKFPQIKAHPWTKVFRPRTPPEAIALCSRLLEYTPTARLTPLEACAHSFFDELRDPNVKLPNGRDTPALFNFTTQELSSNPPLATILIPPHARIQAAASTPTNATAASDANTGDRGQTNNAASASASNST

c1ccc2c(c1)CN1CCCC1=N2
IC50 (Cholinesterase [1]): 0.04 µM
IC50 (Acetylcholinesterase [2]): 2.37 µM

c1ccc2c(c1)CCN1Cc3cc(OCCCN4CCCCC4)ccc3N=C21
IC50 (Acetylcholinesterase [3]): 0.0055 µM
Ratio IC50 [4]: 174
IC50 (Cholinesterase [5]): 0.955 µM
IC50 (Acetylcholinesterase [6]): 0.216 µM

Cn1cc(CN(C(=O)CCCN2C(N)=Nc3ccc(Oc4ccccc4)cc3C2CC2CCCCC2)C2CCCCC2)cn1 (stereo unspecified)
IC50 (Beta-secretase 1 [7]): 0.14 µM
IC50 (Beta-secretase 1 [8]): 0.49 µM
IC50 (SH-SY5Y): 11.8 µM

Cn1c(N/N=C/c2cccc(Cl)c2Cl)nc2ccccc2c1=O
IC50 [9]: > 100 µM

NNC(=O)CN1C(=O)c2ccccc2NC1c1ccc2c(c1)OCO2 (stereo unspecified)
IC50 [10]: 83 µM
IC50 [11]: 0.0021 µM

Cn1c(N/N=C(\C=C\c2cccc(Cl)c2)c2ccccc2)nc2ccccc2c1=O
IC50 [10]: 1.15 µM
IC50 [11]: 468 µM

c1ccc2c(c1)CN1Cc3cc(OCCCN4CCCCC4)ccc3N=C21
IC50 (Acetylcholinesterase [3]): 0.0069 µM
Ratio IC50 [4]: 600
IC50 (Cholinesterase [5]): 4.14 µM
IC50 (Acetylcholinesterase [6]): 0.142 µM

CC1(c2ccc(Cl)cc2)Nc2cc(Cl)ccc2-c2ccnn21 (stereo unspecified)
IC50 (Cholinesterase [1]): > 379 µM
IC50 (Acetylcholinesterase [12]): 358 µM

O=C(O)c1cc2c3cc(-n4cnnc4)c(Cl)cc3[nH]c(=O)n2n1
IC50 [13]: 5.5 µM

CSc1nc2nc(NN)c3ccccc3n2n1
inhibition [14]: 85.9%

CC(C)CC1(CC(C)C)NC(=O)c2ccccc2N1Cc1ccc(Cl)cc1
IC50 (Cholinesterase [15]): 1.56 µM
Ratio IC50 [16]: 2.6

Cc1ccccc1-n1c(SCC(=O)N/N=C/c2ccc(Br)cc2)nc2ccccc2c1=O
IC50 (Acetylcholinesterase [17]): 210 µM
inhibition (Cholinesterase [18]): 6.8%

O=c1[nH]c(CCCO)nc2ccccc12
IC50 (Cholinesterase [1]): 105 µM
IC50 (Acetylcholinesterase [2]): 155 µM

CC(C)CC1(CC(C)C)NC(=O)c2ccccc2N1Cc1ccccc1
IC50 (Cholinesterase [15]): 2.48 µM
Ratio IC50 [16]: 3.1

C=CCNC(=S)NNc1nc2nc(SC)nn2c2ccccc12
inhibition [14]: 91%

CSc1nc2nc(NNC(=S)NC3CCCCC3)c3ccccc3n2n1
inhibition [14]: 91.2%

COC(=N)c1nc2ccc3ncnc(Nc4ccc5c(c4)OCO5)c3c2s1
IC50 [19]: 0.66 µM
IC50 [20]: > 10 µM
IC50 [21]: > 10 µM

O=c1c2ccccc2nc2n1C(C1CN=Cc3[nH]c4ccccc4c31)CC2O (stereo unspecified)
IC50 (Cholinesterase [1]): 9.26 µM
IC50 (Acetylcholinesterase [2]): 40.5 µM

c1cc2c(cc1OCCCN1CCCCC1)CN1CCCCC1=N2
IC50 (Acetylcholinesterase [3]): 0.0333 µM
Ratio IC50 [4]: 0.197
IC50 (Cholinesterase [5]): 0.00655 µM
IC50 (Acetylcholinesterase [6]): 0.225 µM

OC1CCN2Cc3ccccc3N=C12 (stereo unspecified)
IC50 (Cholinesterase [1]): 2.6 µM
IC50 (Acetylcholinesterase [2]): 13.7 µM

c1ccc2c(c1)CCCN1Cc3cc(OCCCN4CCCCC4)ccc3N=C21
IC50 (Acetylcholinesterase [3]): 0.0571 µM
Ratio IC50 [4]: 47
IC50 (Cholinesterase [5]): 2.67 µM
IC50 (Acetylcholinesterase [6]): 0.535 µM

O=c1c2ccccc2nc2n1CC[C@@H]2[C@@H]1CCCN1
IC50 (Cholinesterase [1]): > 500 µM
IC50 (Acetylcholinesterase [22]): 5.71 µM

COC(=N)c1nc2ccc3ncnc(Nc4ccc(OC)cc4)c3c2s1
IC50 [19]: 0.2 µM
IC50 [20]: > 10 µM
IC50 [21]: > 10 µM

O=c1c2ccccc2nc2n1C(c1cncc3[nH]c4ccccc4c13)CC2O (stereo unspecified)
IC50 (Cholinesterase [1]): 18.2 µM
IC50 (Acetylcholinesterase [2]): 70.5 µM

c1cc2c(cc1OCCCN1CCCCC1)CN1CCCC1=N2
IC50 (Acetylcholinesterase [3]): 0.0692 µM
Ratio IC50 [4]: 1.76
IC50 (Cholinesterase [5]): 0.122 µM
IC50 (Acetylcholinesterase [6]): 1.1 µM

O=c1c2ccccc2nc2n1CCC2O (stereo unspecified)
IC50 (Cholinesterase [1]): 10.2 µM
IC50 (Acetylcholinesterase [2]): 76.6 µM

O=C(CCN1CCCCC1)Nc1ccc2nc(-c3cc4ccccc4[nH]3)[nH]c(=O)c2c1
IC50 (Cholinesterase [1]): 7.32 µM

Nc1ncc2ccc3ccncc3c2n1
IC50 [23]: 2.18 µM
inhibition [24]: 100%
inhibition [25]: 98%
inhibition [26]: 98%

CC1c2cc(Oc3ccccc3)ccc2N=C(N)N1CCCC(=O)N(Cc1cnn(C)c1)C1CCCCC1 (stereo unspecified)
IC50 (Beta-secretase 1 [7]): 0.14 µM
IC50 (Beta-secretase 1 [8]): 0.38 µM
IC50 (SH-SY5Y): 12.5 µM

CC1(c2ccc(Cl)cc2)NC(=O)c2cc(Br)cc(Br)c2N1 (stereo unspecified)
IC50 (Acetylcholinesterase [27]): 1.6 µM
IC50 (Cholinesterase [15]): 3.7 µM
Ratio IC50 [16]: 2.3

O=c1c2cccc(Cl)c2[nH]c(=S)n1-c1c(F)cccc1F
IC50 [28]: 6.1 µM

O=c1c2cccc(Cl)c2[nH]c(=S)n1-c1ccccc1Br
IC50 [28]: 1.8 µM

CSc1nc2nc(N/N=C/c3cccnc3)c3ccccc3n2n1
inhibition [14]: 62%

COc1cc(/C=C/c2nc3cc(Cl)ccc3c(=O)[nH]2)ccc1-n1cnc(C)c1
IC50 [29]: 0.66 µM
IC50 [30]: > 10 µM

O=c1c2ccccc2nc2n1CCC2 [DEOXYVASICINONE]
IC50 (Cholinesterase [1]): 17.8 µM
IC50 (Acetylcholinesterase [2]): 35.2 µM

O=Cc1ccn(-c2cc3c(cc2Cl)nc(O)n2nc(C(=O)O)cc32)c1
IC50 [13]: 5.1 µM

Cn1c(N/N=C/c2ccc(O)cc2O)nc2ccccc2c1=O
IC50 (Beta-secretase 1 [31]): 27.6 µM
IC50 [9]: 8.4 µM

CN1C(=O)C2(Nc3cc(Cl)ccc3-c3ccnn32)c2cc(Cl)ccc21 (stereo unspecified)
IC50 (Cholinesterase [1]): 219 µM
IC50 (Acetylcholinesterase [12]): 88.2 µM

c1cc2c(cc1OCCCN1CCCCC1)CN1CCCCCC1=N2
IC50 (Acetylcholinesterase [3]): 0.043 µM
Ratio IC50 [4]: 0.296
IC50 (Cholinesterase [5]): 0.0127 µM
IC50 (Acetylcholinesterase [6]): 0.82 µM

COC(=N)c1nc2ccc3ncnc(Nc4ccc(Br)cc4F)c3c2s1
IC50 [19]: 0.16 µM
IC50 [20]: > 10 µM
IC50 [21]: > 10 µM

Nc1ncc2cc3cnccc3cc2n1
IC50 [32]: 0.8 µM
IC50 [23]: 0.18 µM
inhibition [24]: > 10%
inhibition [26]: > 10%

O=C(O)C1=Nc2ccccc2CN1
IC50 (Cholinesterase [1]): > 1000 µM
IC50 (Acetylcholinesterase [2]): 345 µM
